Data from patent US20090036466A1, “AMINO-BENZIMIDAZOLES DERIVATIVES AS INHIBITORS OF RESPIRATORY SYNCYTIAL VIRUS REPLICATION” (priority 2003, published 2009).
Counter-ions that a name gives are not always drawn.

Legend:
[1] = system: Respiratory Syncytial Virus; assay: microbe, parasite or virus in culture; assay type: cell-based; conditions: human respiratory syncytial virus, 168 h; protection against RSV cytopathology in HeLa cells, MTT read-out seven days after infection; pEC50 = -log of EC50 in molar units
Procedure: The percent protection against cytopathology caused by viruses (antiviral activity or EC50) achieved by tested compounds and their cytotoxicity (CC50) are both calculated from dose-response curves.
Automated tetrazolium-based […] assays were used for determination of EC50 and CC50 of test compounds. Flat-bottom, 96-well plastic microtiter trays were filled with 180 μl of Eagle's Basal Medium, supplemented with 5% FCS (0% for FLU) and 20 mM Hepes buffer. Subsequently, stock solutions (7.8× final test concentration) of compounds were added in 45 μl volumes to a series of triplicate wells so as to allow simultaneous evaluation of their effects on virus- and mock-infected cells. Five five-fold dilutions were made directly in the microtiter trays using a robot system. Untreated virus controls, and HeLa cell controls were included in each test. Approximately 100 TCID50 of Respiratory Syncytial Virus was added to two of the three rows in a volume of 50 μl. The same volume of medium was added to the third row to measure the cytotoxicity of the compounds at the same concentrations as those used to measure the antiviral activity. After two hours of incubation, a suspension (4×10^5 cells/ml) of HeLa cells was added to all wells in a volume of 50 μl. The cultures were incubated at 37° C. in a 5% CO2 atmosphere. Seven days after infection the cytotoxicity and the antiviral activity was examined spectrophotometrically. To each well of the microtiter tray, 25 μl of a solution of MTT (3-(4,5-dimethylthiazol-2-yl)-2,5-diphenyltetrazolium bromide) was added. The trays were further incubated at 37° C. for 2 hours, after which the medium was removed from each cup. Solubilization of the formazan crystals was achieved by adding 100 μl 2-propanol. Complete dissolution of the formazan crystals were obtained after the trays have been placed on a plate shaker for 10 min. Finally, the absorbances were read in an eight-channel computer-controlled photometer (Multiskan MCC, Flow Laboratories) at two wavelengths (540 and 690 nm). The absorbance measured at 690 nm was automatically subtracted from the absorbance at 540 nm, so as to eliminate the effects of non-specific absorption.

Row | SMILES | melting point | EC50 [1]
1 | Cc1cc(C)c2nc(NCCCN3CCCCC3)n(Cc3nc(C)ccc3O)c2c1 (as salt: salt) [Compound 1, 2-[4,6-dimethyl-2-(3-piperidin-1-yl-propylamino)-benzoimidazol-1-ylmethyl]-6-methyl-pyridin-3-ol] | > 260 °C | 
2 | Cc1cc(C)c2nc(NCC(O)CO)n(Cc3nc(C)ccc3O)c2c1 (stereo not drawn) (as salt: salt) [Compound 4, 3-[1-(3-hydroxy-6-methyl-pyridin-2-ylmethyl)-4,6-dimethyl-1H-benzoimidazol-2-ylamino]-propane-1,2-diol] | 205 °C | 
3 | Cc1cc(C)c2nc(NCCCO)n(Cc3nc(C)ccc3O)c2c1 (as salt: salt) [Compound 7, 2-[2-(3-hydroxypropylamino)-4,6-dimethyl-benzoimidazol-1-ylmethyl]-6-methyl-pyridin-3-ol] | 170 °C | 
4 | Cc1cc(C)c2nc(NCCC(N)=O)n(Cc3nc(C)ccc3O)c2c1 (as salt: salt) [Compound 8, 3-[1-(3-hydroxy-6-methyl-pyridin-2-ylmethyl)-4,6-dimethyl-1H-benzoimidazol-2-ylamino]-propionamide] | 229 °C | 
5 | Cc1cc(C)c2nc(Nc3ccc(CN)cc3)n(Cc3nc(C)ccc3O)c2c1 (as salt: salt) [Compound 9, 2-[2-(4-aminomethyl-phenylamino)-4,6-dimethyl-benzoimidazol-1-ylmethyl]-6-methyl-pyridin-3-ol] | 255 °C | 
6 | CCOC(=O)CCNc1nc2c(C)cc(C)cc2n1Cc1nc(C)ccc1O (as salt: salt) [Compound 12, 3-[1-(3-hydroxy-6-methylpyridin-2-ylmethyl)-4,6-dimethyl-1H-benzoimidazol-2-ylamino]-propionic acid ethyl ester] | 180 °C | 
7 | Cc1cc(C)c2nc(NCCCN3CCCCC3)n(Cc3nc(C)ccc3O)c2c1 [Compound 1, 2-[4,6-dimethyl-2-(3-piperidin-1-yl-propylamino)-benzoimidazol-1-ylmethyl]-6-methyl-pyridin-3-ol] |  | 20 nM
8 | Cc1cc(C)c2nc(NCC(O)CO)n(Cc3nc(C)ccc3O)c2c1 (stereo not drawn) [Compound 4, 3-[1-(3-hydroxy-6-methyl-pyridin-2-ylmethyl)-4,6-dimethyl-1H-benzoimidazol-2-ylamino]-propane-1,2-diol] |  | 39.8 nM
9 | Cc1cc(C)c2nc(NCCCO)n(Cc3nc(C)ccc3O)c2c1 [Compound 7, 2-[2-(3-hydroxypropylamino)-4,6-dimethyl-benzoimidazol-1-ylmethyl]-6-methyl-pyridin-3-ol] |  | 158 nM
10 | Cc1cc(C)c2nc(NCCC(N)=O)n(Cc3nc(C)ccc3O)c2c1 [Compound 8, 3-[1-(3-hydroxy-6-methyl-pyridin-2-ylmethyl)-4,6-dimethyl-1H-benzoimidazol-2-ylamino]-propionamide] |  | 158 nM
11 | Cc1cc(C)c2nc(Nc3ccc(CN)cc3)n(Cc3nc(C)ccc3O)c2c1 [Compound 9, 2-[2-(4-aminomethyl-phenylamino)-4,6-dimethyl-benzoimidazol-1-ylmethyl]-6-methyl-pyridin-3-ol] |  | 251 nM
12 | CCOC(=O)CCNc1nc2c(C)cc(C)cc2n1Cc1nc(C)ccc1O [Compound 12, 3-[1-(3-hydroxy-6-methylpyridin-2-ylmethyl)-4,6-dimethyl-1H-benzoimidazol-2-ylamino]-propionic acid ethyl ester] |  | 3160 nM
